Results reported in the supplement of paper PMC6045584.
± gives the standard deviation of the averaged measurements.

Key:
[1] = compound: C=CCNC1=C2C[C@@H](C)C[C@H](OC)[C@H](O)[C@@H](C)/C=C(\C)[C@H](OC(N)=O)[C@@H](OC)/C=C\C=C(/C)C(=O)NC(=CC1=O)C2=O [17-AAG]; experiment: surviving fraction relative to DMSO-only wells; higher = less growth inhibition; settings: exposure time: 5 days
Summary of the method: (§1)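 After seeding at 250–500 cells per well in 384-well plates and a 24-hour wait, log-phase tumour cell lines were exposed without interruption for five days to inhibitors at 0.5, 1, 5, 10, 50, 100, 500 and 1000 nM. CellTiter-Glo luminescence was recorded after 10 minutes at room temperature. Viability is reported as surviving fraction, the luminescence normalised to the median of DMSO-only wells.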

[2] = compound: COc1cc2c(cc1O)CC[C@@H]1[C@@H]2CC[C@]2(C)[C@@H](O)CC[C@@H]12 [2-METHOXYESTRADIOL]; experiment: as above; settings: exposure time: 5 days
Summary of the method: as §1

| Test System | surviving fraction ([1]; 0.5 nM) | surviving fraction ([1]; 1 nM) | surviving fraction ([1]; 5 nM) | surviving fraction ([1]; 10 nM) | surviving fraction ([1]; 50 nM) | surviving fraction ([1]; 100 nM) | surviving fraction ([1]; 500 nM) | surviving fraction ([1]; 1000 nM) | surviving fraction ([2]; 0.5 nM) | surviving fraction ([2]; 1 nM) | surviving fraction ([2]; 5 nM) | surviving fraction ([2]; 10 nM) | surviving fraction ([2]; 50 nM) | surviving fraction ([2]; 100 nM) | surviving fraction ([2]; 500 nM) | surviving fraction ([2]; 1000 nM) |
| --- | --- | --- | --- | --- | --- | --- | --- | --- | --- | --- | --- | --- | --- | --- | --- | --- |
| HU09 BONE | 0.918 ± 0.045 | 0.935 ± 0.14 | 0.542 ± 0.025 | 0.131 ± 0.038 | 0.0283 ± 0.00058 | 0.0237 ± 0.0031 | 0.0233 ± 0.0029 | 0.0233 ± 0.0038 | 1.02 ± 0.055 | 0.959 ± 0.03 | 1.02 ± 0.024 | 1.1 ± 0.1 | 1.12 ± 0.081 | 1.08 ± 0.095 | 0.512 ± 0.015 | 0.159 ± 0.029 |
| SYO1 SYNOVIAL | 0.8369 ± 0.0068 | 0.819 ± 0.049 | 0.8483 ± 0.0038 | 0.8 ± 0.038 | 0.488 ± 0.042 | 0.183 ± 0.012 | 0.0407 ± 0.0017 | 0.0322 ± 0.0014 | 0.933 ± 0.044 | 0.93 ± 0.038 | 0.933 ± 0.017 | 0.961 ± 0.046 | 0.946 ± 0.043 | 0.9446 ± 0.0033 | 0.441 ± 0.065 | 0.1008 ± 0.00069 |
| S68 BREAST | 0.8 ± 0.19 | 0.706 ± 0.12 | 0.126 ± 0.0072 | 0.0657 ± 0.0075 | 0.0677 ± 0.0091 | 0.064 ± 0.0044 | 0.057 ± 0.0079 | 0.0607 ± 0.0047 | 0.845 ± 0.17 | 0.812 ± 0.15 | 0.879 ± 0.13 | 1.16 ± 0.3 | 1.24 ± 0.23 | 0.985 ± 0.067 | 0.617 ± 0.036 | 0.325 ± 0.017 |
| SKBR3 BREAST | 0.752 ± 0.21 | 0.76 ± 0.055 | 0.497 ± 0.033 | 0.365 ± 0.026 | 0.25 ± 0.018 | 0.205 ± 0.013 | 0.177 ± 0.019 | 0.173 ± 0.0038 | 0.913 ± 0.033 | 0.924 ± 0.16 | 1.09 ± 0.065 | 0.956 ± 0.12 | 0.986 ± 0.079 | 0.986 ± 0.056 | 0.882 ± 0.099 | 0.548 ± 0.051 |
| BT20 BREAST | 0.804 ± 0.1 | 0.793 ± 0.054 | 0.504 ± 0.08 | 0.308 ± 0.034 | 0.303 ± 0.061 | 0.282 ± 0.091 | 0.261 ± 0.068 | 0.278 ± 0.047 | 1.08 ± 0.068 | 1.09 ± 0.062 | 1.07 ± 0.082 | 1.05 ± 0.076 | 1.24 ± 0.14 | 1.11 ± 0.067 | 1.13 ± 0.044 | 0.662 ± 0.048 |
| JIMT1 BREAST | 0.833 ± 0.034 | 0.823 ± 0.062 | 0.84 ± 0.046 | 0.754 ± 0.1 | 0.0973 ± 0.016 | 0.0685 ± 0.0066 | 0.062 ± 0.0026 | 0.0647 ± 0.0033 | 0.985 ± 0.032 | 1.04 ± 0.029 | 1.03 ± 0.023 | 1 ± 0.031 | 1.09 ± 0.013 | 1.05 ± 0.021 | 0.762 ± 0.053 | 0.403 ± 0.045 |
| HCC1954 BREAST | 0.387 ± 0.00071 | 0.292 ± 0.071 | 0.195 ± 0.011 | 0.131 ± 0.03 | 0.0668 ± 0.012 | 0.0498 ± 0.0053 | 0.0425 ± 0.0042 | 0.045 ± 0.0064 | 0.93 ± 0.027 | 1.09 ± 0.072 | 1.049 ± 0.0014 | 1.05 ± 0.12 | 0.845 ± 0.019 | 0.742 ± 0.1 | 0.716 ± 0.034 | 0.515 ± 0.029 |
| VP229 BREAST | 0.808 ± 0.1 | 0.782 ± 0.031 | 0.842 ± 0.076 | 0.773 ± 0.085 | 0.641 ± 0.089 | 0.387 ± 0.042 | 0.101 ± 0.013 | 0.0917 ± 0.012 | 1.03 ± 0.077 | 1.09 ± 0.15 | 0.954 ± 0.093 | 1.04 ± 0.094 | 1.03 ± 0.15 | 1.18 ± 0.17 | 0.981 ± 0.058 | 0.801 ± 0.11 |
| NOS1 BONE | 0.804 ± 0.1 | 0.831 ± 0.081 | 0.759 ± 0.069 | 0.651 ± 0.063 | 0.379 ± 0.023 | 0.215 ± 0.027 | 0.0853 ± 0.0021 | 0.0827 ± 0.008 | 1.19 ± 0.077 | 1.15 ± 0.063 | 1.27 ± 0.18 | 1.28 ± 0.14 | 1.13 ± 0.23 | 1.22 ± 0.097 | 0.981 ± 0.055 | 0.438 ± 0.036 |
| SG31 HEADNECK | 0.87 ± 0.024 | 0.911 ± 0.052 | 0.874 ± 0.15 | 0.753 ± 0.14 | 0.642 ± 0.064 | 0.302 ± 0.034 | 0.047 ± 0.0092 | 0.0317 ± 0.0029 | 1.09 ± 0.23 | 1.12 ± 0.13 | 0.996 ± 0.26 | 1.09 ± 0.084 | 1 ± 0.077 | 0.949 ± 0.025 | 1.12 ± 0.13 | 0.962 ± 0.073 |
| OS25HAL BONE | 0.9 ± 0.024 | 0.897 ± 0.041 | 0.909 ± 0.05 | 0.894 ± 0.05 | 0.948 ± 0.015 | 0.762 ± 0.13 | 0.146 ± 0.0098 | 0.141 ± 0.0098 | 0.828 ± 0.2 | 0.94 ± 0.029 | 0.961 ± 0.021 | 0.945 ± 0.042 | 1 ± 0.086 | 1.05 ± 0.072 | 0.501 ± 0.092 | 0.169 ± 0.014 |
| 22RV1 PROSTATE | 0.906 ± 0.038 | 0.989 ± 0.043 | 0.975 ± 0.027 | 0.91 ± 0.069 | 0.687 ± 0.07 | 0.336 ± 0.047 | 0.134 ± 0.0046 | 0.0907 ± 0.011 | 1.01 ± 0.057 | 1.09 ± 0.17 | 1.04 ± 0.07 | 1.07 ± 0.15 | 1.03 ± 0.073 | 0.903 ± 0.16 | 0.791 ± 0.18 | 0.646 ± 0.068 |
| KPD BONE | 0.907 ± 0.085 | 0.894 ± 0.05 | 0.913 ± 0.01 | 0.828 ± 0.084 | 0.246 ± 0.018 | 0.111 ± 0.011 | 0.0627 ± 0.0015 | 0.0607 ± 0.0045 | 0.992 ± 0.043 | 0.964 ± 0.04 | 1.02 ± 0.066 | 1.03 ± 0.014 | 1.08 ± 0.031 | 1.07 ± 0.024 | 0.784 ± 0.047 | 0.551 ± 0.026 |
| HUO3N1 BONE | 0.881 ± 0.025 | 0.888 ± 0.042 | 0.97 ± 0.022 | 0.872 ± 0.046 | 0.591 ± 0.046 | 0.443 ± 0.025 | 0.359 ± 0.026 | 0.316 ± 0.036 | 1.01 ± 0.012 | 0.994 ± 0.037 | 1.05 ± 0.05 | 1.03 ± 0.057 | 1.07 ± 0.022 | 1.02 ± 0.041 | 0.87 ± 0.059 | 0.537 ± 0.03 |
| OSHN BONE | 0.9227 ± 0.006 | 0.923 ± 0.011 | 0.943 ± 0.013 | 0.937 ± 0.018 | 0.921 ± 0.018 | 0.232 ± 0.071 | 0.123 ± 0.0085 | 0.108 ± 0.0066 | 1.03 ± 0.012 | 1.046 ± 0.0025 | 1.05 ± 0.026 | 1.031 ± 0.0067 | 1.054 ± 0.0092 | 1.068 ± 0.007 | 1.04 ± 0.033 | 0.044 ± 0.0036 |
| C33A CERVIX | 1.22 ± 0.12 | 1.04 ± 0.14 | 1.4 ± 0.13 | 1.2 ± 0.09 | 1.31 ± 0.068 | 1.16 ± 0.1 | 1.061 ± 0.0074 | 0.124 ± 0.016 | 0.689 ± 0.038 | 0.772 ± 0.04 | 0.918 ± 0.1 | 1.03 ± 0.055 | 0.965 ± 0.031 | 0.964 ± 0.055 | 0.482 ± 0.087 | 0.595 ± 0.028 |
| SUM149 BREAST | 0.924 ± 0.031 | 0.964 ± 0.026 | 0.87 ± 0.053 | 0.35 ± 0.018 | 0.0457 ± 0.0049 | 0.034 ± 0.004 | 0.0233 ± 0.0023 | 0.0237 ± 0.00058 | 0.984 ± 0.04 | 0.997 ± 0.052 | 1.07 ± 0.072 | 0.955 ± 0.025 | 1 ± 0.052 | 0.934 ± 0.065 | 0.442 ± 0.052 | 0.133 ± 0.022 |
| ASKA SYNOVIAL | 0.785 ± 0.062 | 0.728 ± 0.11 | 0.626 ± 0.045 | 0.293 ± 0.025 | 0.206 ± 0.014 | 0.182 ± 0.02 | 0.185 ± 0.011 | 0.226 ± 0.0099 | 1.07 ± 0.086 | 1.08 ± 0.068 | 1.05 ± 0.054 | 1.07 ± 0.054 | 1.1 ± 0.049 | 1.03 ± 0.066 | 0.503 ± 0.039 | 0.353 ± 0.015 |
| SIHA CERVIX | 1.01 ± 0.073 | 0.939 ± 0.033 | 0.969 ± 0.18 | 0.895 ± 0.032 | 0.581 ± 0.077 | 0.211 ± 0.012 | 0.171 ± 0.0082 | 0.18 ± 0.017 | 0.869 ± 0.011 | 0.902 ± 0.085 | 0.952 ± 0.092 | 0.979 ± 0.057 | 0.973 ± 0.047 | 1.02 ± 0.057 | 0.719 ± 0.062 | 0.611 ± 0.072 |
| SUM159 BREAST | 1.02 ± 0.087 | 0.998 ± 0.046 | 0.993 ± 0.062 | 0.946 ± 0.044 | 0.0997 ± 0.0055 | 0.0537 ± 0.0086 | 0.053 ± 0.0046 | 0.0527 ± 0.01 | 1.02 ± 0.028 | 1.02 ± 0.028 | 1.01 ± 0.027 | 1.02 ± 0.022 | 1.02 ± 0.023 | 1.04 ± 0.021 | 0.9593 ± 0.0093 | 0.562 ± 0.074 |
| HOS BONE | 0.924 ± 0.029 | 0.932 ± 0.037 | 0.934 ± 0.027 | 0.93 ± 0.017 | 0.914 ± 0.024 | 0.442 ± 0.11 | 0.0503 ± 0.0011 | 0.0427 ± 0.0032 | 0.996 ± 0.013 | 0.992 ± 0.029 | 1.02 ± 0.02 | 1.004 ± 0.0095 | 1.04 ± 0.015 | 1.05 ± 0.025 | 0.96 ± 0.02 | 0.158 ± 0.011 |
| LM7 BONE | 0.755 ± 0.098 | 0.728 ± 0.03 | 0.763 ± 0.026 | 0.722 ± 0.01 | 0.188 ± 0.0075 | 0.121 ± 0.0085 | 0.0937 ± 0.0021 | 0.0923 ± 0.0068 | 0.969 ± 0.063 | 1.03 ± 0.016 | 1.06 ± 0.022 | 1.01 ± 0.056 | 1.12 ± 0.077 | 1.03 ± 0.13 | 0.5347 ± 0.0023 | 0.264 ± 0.024 |
